Source: patent US20210283111A1, “Methods of Inhibiting Osteoclastogenesis and Osteoclast Activity” (vTv Therapeutics LLC, priority 2018, published 2021)
“Also recorded” adds a separate entry of the source.

Assays:
[1] = test system: osteoclast marker genes (Atp6v0d2, Trap, Mmp9, Cathepsin K, Dcstamp, and Oscar) in RANKL-stimulated RAW 264.7 cells; experiment: Real-time RT-PCR of osteoclast marker gene expression; format: cell-based, Mouse; conditions: RAW264.7 cells, RANKL + compound 400 nM; for Dcstamp Fold Change from Control (Ave) / ATP6vd2 Fold Change from Control (Ave) / Cathepsin K Fold Change from Control (Ave) / Oscar Fold Change from Control (Ave) / Mmp9 Fold Change from Control (Ave) / TRAP Fold Change from Control (Ave): 4 days; for Dcstamp Fold Change from Control (Ave): Control 1.00, RANKL alone 4.32; for ATP6vd2 Fold Change from Control (Ave): Control 1.00, RANKL alone 4.69; for Cathepsin K Fold Change from Control (Ave): Control 1.00, RANKL alone 7.83; for Oscar Fold Change from Control (Ave): Control 1.00, RANKL alone 23.88; for Mmp9 Fold Change from Control (Ave): Control 1.00, RANKL alone 42.90; for TRAP Fold Change from Control (Ave): Control 1.00, RANKL alone 132.47
Method: (§1) RNA was extracted from RAW264.7 cells using the GenElute mammalian total RNA Miniprep kit (Sigma-Aldrich, St. Louis, Mo.) with on-column genomic DNA digestion according to the manufacturer's instructions. For antioxidant gene expression analysis, RNA was extracted at 1 day after test compound treatment, and the gene expressions of HMOX1 and NQO1 was analyzed. For osteoclast marker gene expression analysis, RNA was extracted at 4 days after RANKL stimulation, and the gene expressions of Atp6v0d2, Cathepsin K, Matrix metalloproteinase 9, Trap, Dcstamp, and Oscar were analyzed. After measurement of the RNA concentration, isolated RNA (500 ng each) was reverse transcribed with iScript cDNA-Supermix (Bio-Rad Laboratories, Hercules, Calif.). Real-time RT-PCR was performed with SsoFast EvaGreen-Supermix (Bio-Rad Laboratories). PCR primers used in the experiments were from PrimerBank and were described in H. Kanzaki, et al. “The Keap1/Nrf2 protein axis plays a role in osteoclast differentiation by regulating intracellular reactive oxygen species signaling,” The Journal of Biological Chemistry 288(32) (2013) 23009-20. Fold changes of gene of interest were calculated by using the […] method with ribosomal protein S18 as reference gene. Data shown are representative of 3 independent experiments performed in triplicate.

[2] = test system: RANKL-stimulated RAW264.7 cells; experiment: Resorption assay on bone resorption assay plate (calcium phosphate substrate); format: cell-based, Mouse; conditions: for Ave of Resorbed Area per Filed (%): RANKL 100 ng/mL + compound 400 nM, 7 days, Control 0.00, RANKL alone 1.14; for effect on resorption areas: RANKL + compound 400 nM
Method: RAW264.7 cells were plated on synthesized calcium phosphate substrate (bone resorption assay plate; PG Research, Tokyo, Japan) and stimulated with RANKL in the presence or absence of test compounds. After 7 days of cultivation, cells were removed with bleach, and the calcium phosphate substrate was washed with distilled water and then dried. Photographs were taken, and the average of the resorbed area per field was calculated from 12 images of each sample, using ImageJ software (National Institutes of Health, Bethesda).

[3] = test system: RANKL-mediated osteoclastogenesis in RAW264.7 cells; experiment: Osteoclastogenesis assay: TRAP staining of RANKL-stimulated RAW264.7 cells; format: cell-based, Mouse; conditions: for No. of TRAP-positive multinucleated cells (Cells/Well): RANKL 100 ng/mL + compound 400 nM, 4 days, Control 0.00, RANKL alone 140.00; for effect on number of TRAP-positive multinucleated cells / RANKL-mediated osteoclastogenesis: RANKL 100 ng/mL, compound 400 nM
Method: Cells were plated on 96-well plates (RAW264.7 cells: 10^3 cells/well) in triplicate in the presence or absence of recombinant RANKL (100 ng/ml) with or without the test compounds. After 4 days culture, cells were stained for tartrate-resistant acid phosphatase (TRAP) using an acid phosphatase kit (Sigma-Aldrich, St. Louis, Mo.). Dark red multinucleated cells (>3 nuclei) were counted as TRAP-positive multinucleated cells.

[4] = test system: RANKL-triggered intracellular ROS production in RAW264.7 cells; experiment: Intracellular ROS detection by flow cytometry (BES-So-AM); format: cell-based, Mouse; conditions: pretreated 1 h, RANKL 6 h
Method: Cells were pretreated with or without Compound HPP-4 for 1 h, stimulated with soluble RANKL for 6 h, washed with PBS, and collected. Cells were then incubated with fluorescent superoxide probe (BES-So-AM; Wako Pure Chemical) on ice. After washing, intracellular ROS was detected using an AccuriC6 flow cytometer (BD Biosciences, San Jose, Calif., USA). The viable monocyte/macrophage fraction was gated on a forward scatter/side scatter plot, and ROS levels were monitored in the FL-1 channel. Data shown are representative of 3 independent experiments performed in triplicated.

[5] = test system: LPS-mediated bone destruction in mice calvaria; experiment: In vivo bone destruction model (LPS-induced calvarial bone destruction, μCT); set-up: species or system BALB/c mice
Method: The animal experimental protocol was reviewed and approved by the Institutional Animal Care and Use committee, Tsurumi University (approval number; 28A030). All animals were treated ethically, and animal experiments were performed in compliance with the Regulations for Animal Experiments and Related Activities at Tsurumi University. The calvarial bone destruction mouse model, induced by repeated LPS injections. Twenty 7-week-old male BALB/c mice (Clea Japan, Tokyo, Japan) were used. Mice were randomly assigned to four groups (n=5 each): a Dimethyl sulfoxide (DMSO)-injected group (control group; 10 μl PBS+2 μl DMSO), a HPP-4-injected group (HPP-4 group; 10 μl PBS+2 μl of Cpd. HPP-4 2 μM), an LPS-induced bone resorption group (LPS group; 10 μl of 1 μg/μl LPS+2 μl DMSO) and an LPS-induced bone resorption and Cpd. HPP-4-injected group (LPS+HPP-4 group; 10 μl of 1 μg/μl LPS+2 μl of HPP-4 2 μM), Injections were performed under anaesthesia with a 30-gauge needle at a point on the midline of the skull located between the eyes on days 1, 3, 5, 7, and 9. On day 11, mice were sacrificed by cervical dislocation and cranial tissue samples were fixed overnight with 4% paraformaldehyde in PBS.
Fixed cranial tissue samples were subsequently scanned with an X-ray microcomputed tomography […] system (inspeXio SMX-225CT; Shimadzu Corp., Kyoto, Japan). After reconstitution, the DICOM files were rendered into three-dimensional images using Pluto software. Percentage of resorbed area, calculated from the ratio of the number of pixels in the resorbed area in the cranial bone to the number of pixels in the total analyzed image of the cranial bone, was calculated with the ImageJ software. The region of interest was set between the fronto-parietal (coronal) suture and parietooccipital (lambdoidal) suture.

[6] = test system: HMOX1 and NQO1 in RAW264.7 cells; experiment: Real-time RT-PCR of antioxidant gene expression; format: cell-based, Mouse; conditions: 400 nM
Method: as §1

| SMILES | RANKL-mediated upregulation of osteoclast marker genes [1] | difference from RANKL alone in Atp6v0d2, Mmp9, and Oscar expression [1] | Dcstamp Fold Change from Control (Ave) [1] | ATP6vd2 Fold Change from Control (Ave) [1] | Cathepsin K Fold Change from Control (Ave) [1] | Oscar Fold Change from Control (Ave) [1] | Mmp9 Fold Change from Control (Ave) [1] | TRAP Fold Change from Control (Ave) [1] | Ave of Resorbed Area per Filed (%) [2] | No. of TRAP-positive multinucleated cells (Cells/Well) [3] | effect on number of TRAP-positive multinucleated cells / RANKL-mediated osteoclastogenesis [3] | effect on resorption areas [2] | RANKL-mediated increase in intracellular ROS (superoxide) [4] | LPS-mediated bone destruction ([5]; local injection of HPP-4, μCT) | Percent Resorbed (%), HPP-4 alone ([5]; local injection of HPP-4 without LPS on days 1, 3, 5, 7, 9, μCT day 11, Control 0.15) | Percent Resorbed (%), LPS + HPP-4 ([5]; local injection of LPS + HPP-4 on days 1, 3, 5, 7, 9, μCT day 11, Control 0.15, LPS alone 4.27) | HMOX1 Fold Change from Control (Ave) ([6]; 1 day, Control 1.00) | NQO1 Fold Change from Control (Ave) ([6]; 1 day, Control 1.00) | expression of antioxidant enzymes NQO1 and HMOX1 ([6]; p<0.05 relative to control) |
| --- | --- | --- | --- | --- | --- | --- | --- | --- | --- | --- | --- | --- | --- | --- | --- | --- | --- | --- | --- |
| COCCNC(=O)c1cnc2c(c1)nc(Nc1nc3ccc(OC(F)(F)F)cc3s1)n2C [HPP-1, 3-Methyl-2-(6-trifluoromethoxy-benzothiazol-2-ylamino)-3H-imidazo[4,5-b]pyridine-6-carboxylic acid (2-methoxy-ethyl)-amide] | weak suppression | no significant differences | 3.33 Fold Change from Control | 3.52 Fold Change from Control | 5.96 Fold Change from Control | 20.22 Fold Change from Control | 39.73 Fold Change from Control | 106.62 Fold Change from Control | 1.21% | 139.33 Cells/Well | no effect | – | – | – | – | – | – | – | – |
| CN(C)C(=O)CNC(=O)c1ccc2c(c1)nc(Nc1nc3ccc(C(F)(F)F)cc3s1)n2C [HPP-2, 1-Methyl-2-(6-trifluoromethyl-benzothiazol-2-ylamino)-1H-benzimidazole-5-carboxylic acid dimethylcarbamoylmethyl-amide] | suppressed | – | 2.55 Fold Change from Control | 3.09 Fold Change from Control | 4.42 Fold Change from Control | 10.03 Fold Change from Control | 24.02 Fold Change from Control | 73.81 Fold Change from Control | 0.78% | 97.67 Cells/Well | no effect | – | – | – | – | – | – | – | – |
| C[C@H](O)CNC(=O)c1ccc2c(c1)nc(Nc1nc3ccc(OC(F)(F)F)cc3s1)n2C [HPP-3, 1-Methyl-2-(6-trifluoromethoxy-benzothiazol-2-ylamino)-1H-benzoimidazole-5-carboxylic acid ((S)-2-hydroxy-propyl)-amide] | suppressed | – | 2.14 Fold Change from Control | 2.36 Fold Change from Control | 3.31 Fold Change from Control | 6.45 Fold Change from Control | 23.89 Fold Change from Control | 59.23 Fold Change from Control | 0.22% | 65.00 Cells/Well | decreased | reduced the resorption areas such that there was no significant difference from control | – | – | – | – | – | – | – |
| Cn1c(Nc2nc3ccc(C(F)(F)F)cc3s2)nc2cc(C(=O)NCCOCCO)ccc21 [HPP-4, 1-Methyl-2-(6-trifluoromethyl-benzothiazol-2-ylamino)-1H-benzoimidazole-5-carboxylic acid [2-(2-hydroxy-ethoxy)-ethyl]-amide] | suppressed | – | 2.39 Fold Change from Control | 2.59 Fold Change from Control | 2.99 Fold Change from Control | 8.18 Fold Change from Control | 20.21 Fold Change from Control | 59.76 Fold Change from Control | 0.23% | 29.00 Cells/Well | decreased the number of TPAP-positive multinucleated cells to that of control | reduced the resorption areas such that there was no significant difference from control | inhibited | ameliorated LPS-induced bone destruction; also recorded: significantly inhibited LPS-mediated bone destruction | 0.42% | 1.84% | 1.62 Fold Change from Control | 2.67 Fold Change from Control | increased |
